Measured values taken from patent US8691517B2, “Flexible carbohydrate-bearing polymer” (Medtronic Minimed, Inc., priority 2005, dated 2014).

Target: MBL (Homo sapiens, UniProt P11226)
Test: affinity of monomeric saccharide unit to MBL
Format: binding

Chain of MBL (P11226 21-248): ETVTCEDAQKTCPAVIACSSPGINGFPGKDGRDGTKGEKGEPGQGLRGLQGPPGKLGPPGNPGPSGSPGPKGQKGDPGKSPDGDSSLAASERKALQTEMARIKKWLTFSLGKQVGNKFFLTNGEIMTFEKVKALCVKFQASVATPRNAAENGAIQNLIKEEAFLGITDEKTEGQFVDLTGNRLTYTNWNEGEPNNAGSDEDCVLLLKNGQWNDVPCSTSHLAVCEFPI

## CC(=O)N[C@H]1C(O)O[C@H](CO)[C@@H](O)[C@@H]1O (some centres unmarked) [N-acetyl-glucosamine]
  IC50: ~6 mM

## O=C[C@H](O)[C@@H](O)[C@@H](O)[C@H](O)CO [galactose]
  IC50: ~36 mM
